According to BigSolDB 2.1:

COC(=O)Nc1ccc(C)c(N)c1
Conditions | solubility (mole fraction)
in di(2-ethylhexyl) phthalate, 326.55 K | 0.032
in di(2-ethylhexyl) phthalate, 333.75 K | 0.0422
in di(2-ethylhexyl) phthalate, 341.65 K | 0.0522
in di(2-ethylhexyl) phthalate, 349.95 K | 0.062
in di(2-ethylhexyl) phthalate, 363.55 K | 0.081
in di(2-ethylhexyl) phthalate, 391.85 K | 0.0992
in dimethyl carbonate, 306.35 K | 0.0339
in dimethyl carbonate, 314.25 K | 0.0446
in dimethyl carbonate, 316.75 K | 0.0499
in dimethyl carbonate, 320.65 K | 0.0552
in dimethyl carbonate, 323.45 K | 0.0604
in dimethyl carbonate, 328.25 K | 0.0655
in dimethyl carbonate, 334.45 K | 0.0706
in dimethyl carbonate, 341.85 K | 0.0756

COC(=O)Nc1ccc(C)c(NC(=O)OC)c1
Conditions | solubility (mole fraction)
in di(2-ethylhexyl) phthalate, 334.25 K | 0.167
in di(2-ethylhexyl) phthalate, 346.95 K | 0.172
in di(2-ethylhexyl) phthalate, 363.65 K | 0.178
in di(2-ethylhexyl) phthalate, 378.65 K | 0.186
in di(2-ethylhexyl) phthalate, 389.55 K | 0.195
in di(2-ethylhexyl) phthalate, 398.15 K | 0.2
in dimethyl carbonate, 307.75 K | 0.0087
in dimethyl carbonate, 316.15 K | 0.013
in dimethyl carbonate, 324.35 K | 0.0173
in dimethyl carbonate, 330.65 K | 0.0216
in dimethyl carbonate, 335.85 K | 0.0258
in dimethyl carbonate, 339.35 K | 0.0299
in dimethyl carbonate, 343.65 K | 0.0341
in dimethyl carbonate, 353.15 K | 0.0423
in dimethyl carbonate, 360.75 K | 0.0503
in dimethyl carbonate, 365.15 K | 0.0535

Cc1ccc(N)cc1N
Conditions | solubility (mole fraction)
in di(2-ethylhexyl) phthalate, 312.45 K | 0.061
in di(2-ethylhexyl) phthalate, 324.25 K | 0.075
in di(2-ethylhexyl) phthalate, 332.52 K | 0.0871
in di(2-ethylhexyl) phthalate, 340.05 K | 0.0972
in di(2-ethylhexyl) phthalate, 349.75 K | 0.108
in di(2-ethylhexyl) phthalate, 361.55 K | 0.127
in dimethyl carbonate, 305.75 K | 0.107
in dimethyl carbonate, 310.05 K | 0.113
in dimethyl carbonate, 312.85 K | 0.116
in dimethyl carbonate, 316.55 K | 0.118
in dimethyl carbonate, 317.45 K | 0.121
in dimethyl carbonate, 321.35 K | 0.124
in dimethyl carbonate, 327.35 K | 0.126
in dimethyl carbonate, 333.45 K | 0.129
